Measured values as given in patent US11554171B2, “Compounds and methods for the targeted degradation of bromodomain-containing proteins” (Arvinas Operations, Inc., priority 2015, dated 2023).

Tested on: c-myc in 22RV-1 cells
Experiment: Human c-myc ELISA assay
Type: cell-based
Conditions: Homo sapiens; for Emax: 22Rv1, 18 h, read-out: Degradation of BRD4: Maximum inhibition (%) c-Myc ELISA in 22RV1 cells; for DC50: 22Rv1, read-out: Degradation of BRD4: DC50 (uM) c-Myc ELISA in 22RV1 cells
Method in brief: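 c-myc levels measured by ELISA in RIPA lysates of 22RV-1 cells, calibrated with a 333-0 pg/ml standard curve. Lysates came from cells exposed for 18 h to an 8-point, 1:3 dose series starting at 300 nM or 1 μM final in 0.1% DMSO. Suppression potency given as DC50.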

Compound	DC50 [µM]	Emax [%]
Cc1ncsc1-c1ccc(CNC(=O)[C@@H]2C[C@@H](O)CN2C(=O)[C@@H](NC(=O)COCCCOCCCOc2ccc(NC(=O)C[C@@H]3N=C(c4ccccc4)c4c(sc(C)c4C)-n4c(C)nnc43)cc2)C(C)(C)C)cc1 [Example 55, (2S,4R)-1-[(2S)-3,3-dimethyl-2-(2-{3-[3-(4-{2-[(9S)-4,5,13-trimethyl-7-phenyl-3-thia-1,8,11,12-tetraazatricyclo[8.3.0.0^2,^6]trideca-2(6),4,7,10,12-pentaen-9-yl]acetamido}phenoxy)propoxy]propoxy}acetamido)butanoyl]-4-hydroxy-N-{[4-(4-methyl-1,3-thiazol-5-yl)phenyl]methyl}pyrrolidine-2-carboxamide]	< 0.01	100
Cc1ncsc1-c1ccc([C@H](C)NC(=O)[C@@H]2C[C@@H](O)CN2C(=O)[C@@H](C(C)C)n2cc(-c3cc(F)cc(O[C@H]4C[C@@H](NC(=O)C[C@@H]5N=C(c6ccc(Cl)cc6)c6c(sc(C)c6C)-n6c(C)nnc65)C4)c3)cn2)cc1 [Example 246]	0.1 to 1	83
Cc1ncsc1-c1ccc([C@H](C)NC(=O)[C@@H]2C[C@@H](O)CN2C(=O)[C@@H](C(C)C)n2cc(-c3cc(F)cc(OCCNC(=O)C[C@@H]4N=C(c5ccc(Cl)cc5)c5c(sc(C)c5C)-n5c(C)nnc54)c3)cn2)cc1 [Example 223]	0.1 to 1	79
Cc1ncsc1-c1ccc(CNC(=O)[C@@H]2C[C@@H](O)CN2C(=O)[C@@H](C(C)C)n2cc(-c3ccnc(O[C@H]4C[C@@H](NC(=O)C[C@@H]5N=C(c6ccc(Cl)cc6)c6c(sc(C)c6C)-n6c(C)nnc65)C4)c3)cn2)cc1 [Example 177, (2S,4R)-4-hydroxy-N-{[4-(4-methyl-1,3-thiazol-5-yl)phenyl]methyl}-1-[(2R)-3-methyl-2-(4-{2-[(1,3-cis)-3-{2-[(9S)-7-(4-chlorophenyl)-4,5,13-trimethyl-3-thia-1,8,11,12-tetraazatricyclo[8.3.0.0^2,^6]trideca-2(6),4,7,10,12-pentaen-9-yl]acetamido}cyclobutoxy]pyridin-4-yl}-1H-pyrazol-1-yl)butanoyl]pyrrolidine-2-carboxamide]	> 1	39.3

Second part, led by results:

DC50 [µM]	Compound	Emax [%]
0.01 to 0.1	Cc1ncsc1-c1ccc(CNC(=O)[C@@H]2C[C@@H](O)CN2C(=O)[C@@H](NC(=O)COc2ccccc2O[C@H]2C[C@@H](NC(=O)C[C@@H]3N=C(c4ccc(Cl)cc4)c4c(sc(C)c4C)-n4c(C)nnc43)C2)C(C)(C)C)cc1 [Example 190]	91
< 0.01	Cc1ncsc1-c1ccc([C@H](C)NC(=O)[C@@H]2C[C@@H](O)CN2C(=O)[C@@H](NC(=O)COc2ccc(N3CC[C@@H](NC(=O)C[C@@H]4N=C(c5ccc(Cl)cc5)c5c(sc(C)c5C)-n5c(C)nnc54)C3)nc2)C(C)(C)C)cc1 [Example 242]	98
< 0.01	Cc1ncsc1-c1ccc([C@H](C)NC(=O)[C@@H]2C[C@@H](O)CN2C(=O)[C@@H](NC(=O)Cc2ccc(N3CC[C@H](NC(=O)C[C@@H]4N=C(c5ccc(Cl)cc5)c5c(sc(C)c5C)-n5c(C)nnc54)C3)cc2)C(C)(C)C)cc1 [Example 235, (2S,4R)-1-[(2S)-2-(2-{4-[(3S)-3-{2-[(9S)-7-(4-chlorophenyl)-4,5,13-trimethyl-3-thia-1,8,11,12-tetraazatricyclo[8.3.0.0^2,^6]trideca-2(6),4,7,10,12-pentaen-9-yl]acetamido}pyrrolidin-1-yl]phenyl}acetamido)-3,3-dimethylbutanoyl]-4-hydroxy-N-[(1S)-1-[4-(4-methyl-1,3-thiazol-5-yl)phenyl]ethyl]pyrrolidine-2-carboxamide]	97.5
0.01 to 0.1	Cc1ncsc1-c1ccc([C@H](C)NC(=O)[C@@H]2C[C@@H](O)CN2C(=O)[C@@H](NC(=O)COCCCN2CCN(C(=O)C[C@@H]3N=C(c4ccc(Cl)cc4)c4c(sc(C)c4C)-n4c(C)nnc43)CC2)C(C)(C)C)cc1 [Example 313]	87.5
